One data set can be described thus: in vitro. It counts as cell-based, human. The settings on record: human, HEK293T Viability at 30 µM [%]. Here is the method:
Cytotoxic effects of test compounds on eukaryotic cells were investigated using a HEK293T cell viability assay. First, the cell density of a HEK293T culture was determined. […] The supernatant was then aspirated and fresh culture medium was added to 200 μL into which the test compounds were previously added. All substances were previously dissolved in DMSO. […] The viability of the cells was then examined by adding PrestoBlue® Cell Viability Agent (Invitrogen, Carlsbad, CA, USA). The supernatant was removed, 10% PrestoBlue® was added in preheated PBS and the culture was incubated for 30 min at 37 °C. In cells with an active metabolism, the PrestoBlue dye is reduced, causing it to fluorescence. The fluorescence (λex = 560 nm, λem = 590 nm) was measured in an EnVision Multilable Plate Reader (Perkin Elmer, Waltham, MA, USA; integration time 0.1 sec/well).

In a further data set the target is rPfGSK-3 (Plasmodium falciparum, UniProt O77344). The experiment in a line: KinaseGlo Plus assay for inhibition of PfGSK-3. Format: biochemical. The settings on record: 10 µM; remaining activity, calculated on DMSO controls; Table 3; read-out: rPfGSK-3 Activity at 10 µM [%].
rPfGSK-3, sequence (O77344 entry or part of it): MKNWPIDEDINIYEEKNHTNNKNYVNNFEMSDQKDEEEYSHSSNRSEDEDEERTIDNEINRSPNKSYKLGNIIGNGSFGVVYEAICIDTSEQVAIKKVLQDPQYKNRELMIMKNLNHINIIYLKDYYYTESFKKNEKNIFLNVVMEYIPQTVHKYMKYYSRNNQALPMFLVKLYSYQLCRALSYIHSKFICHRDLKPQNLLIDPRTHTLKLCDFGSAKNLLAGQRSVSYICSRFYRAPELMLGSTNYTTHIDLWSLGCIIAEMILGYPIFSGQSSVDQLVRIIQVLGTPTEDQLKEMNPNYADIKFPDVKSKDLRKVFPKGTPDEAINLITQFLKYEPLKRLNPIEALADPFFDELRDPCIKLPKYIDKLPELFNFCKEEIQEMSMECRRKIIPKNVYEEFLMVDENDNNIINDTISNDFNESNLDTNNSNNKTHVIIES
Data set [1] concerns erythrocytic forms of P. falciparum (strain 3D7). The experiment in a line: Viability screening of antiplasmodial activity (SYBR-gold DNA quantification, 96 h). Format: cell-based, Plasmodium falciparum. The settings on record: for SI (Selectivity index for 3D7 erythrocytic forms versus HEK293 cells): 3D7 versus HEK293 cells; for IC50 / activity at 0.3 µM / activity at 3 µM: Plasmodium falciparum; for IC50: 3D7, strain 3D7, erythrocytic forms; for activity at 0.3 µM / activity at 3 µM: 96 h, strain 3D7, calculated on DMSO controls; for activity at 0.3 µM: read-out: Parasitemia (3D7) at 0.3 µM [%]; for activity at 3 µM: read-out: Parasitemia (3D7) at 3 µM [%].

The values below come from PMC7397174, “4-Arylthieno[2,3-b]pyridine-2-carboxamides Are a New Class of Antiplasmodial Agents” (Molecules, 2020).

Each structure is given as a SMILES string. Where a name gives a salt, the structure may show the parent alone.

A word on the viability: it is a read-out of living cells in per cent, often relative to untreated cells. The IC50 is the point on the concentration scale where inhibition reaches its midpoint. The low end stands for greater potency, the high end for weaker potency. For the compound `N#Cc1c(N)nc2sc(C(=O)Nc3ccc(Cl)cc3)c(N)c2c1-c1cccc(Cl)c1` [Compound 9a, 3,6-Diamino-4-(3-chlorophenyl)-N-(4-chlorophenyl)-5-cyanothieno[2,3-b]pyridine-2-carboxamide], the viability at 48 h, 30 µM in the data set “in vitro” was found to be 123 ± 8.4%. In addition, the remaining activity at 10 µM at rPfGSK-3 is 80.3 ± 18.2%. In addition, in data set [1], the “SI (Selectivity index for 3D7 erythrocytic forms versus HEK293 cells)” value is on record as above 70, the IC50 is 0.41 µM, the activity at 0.3 µM is 23.1 ± 10.8% and the activity at 3 µM is 3.7 ± 3.6%.
Regarding `N#Cc1c(N)nc2sc(C(=O)Nc3ccc(F)cc3)c(N)c2c1-c1ccc(N2CCCC2)cc1Cl` [Compound 9aa, 3,6-Diamino-4-[2-chloro-4-(pyrrolidin-1-yl)phenyl]-5-cyano-N-(4-fluorophenyl)thieno[2,3-b]pyridine-2-carboxamide], the viability at 48 h, 30 µM in “in vitro” worked out at 74 ± 8.6%. In addition, the remaining activity at 10 µM at rPfGSK-3 was 101 ± 3.7%. In addition, in data set [1], the activity at 0.3 µM was 61.8 ± 27.7% and the activity at 3 µM was 5.3 ± 2.6%.
Taken in the same sequence, the figures for `CN(C)CCN(C)c1ccc(-c2c(C#N)c(N)nc3sc(C(=O)Nc4ccc(F)cc4)c(N)c23)c(Cl)c1` [Compound 9ab, 3,6-Diamino-4-(2-chloro-4-{[2-(dimethylamino)ethyl](methyl)amino}phenyl)-5-cyano-N-(4-fluorophenyl)thieno[2,3-b]pyridine-2-carboxamide] were -1.4 ± 13.1%, 112 ± 13.9%, 16.7 ± 19.5% and 1.6 ± 11%.
Taken in the same sequence, the figures for `CN(CCNC(=O)OC(C)(C)C)c1ccc(-c2c(C#N)c(N)nc3sc(C(=O)Nc4ccc(F)cc4)c(N)c23)c(Cl)c1` [Compound 9ac, tert-Butyl {2-[(3-chloro-4-{3,6-diamino-5-cyano-2-[(4-fluorophenyl)carbamoyl]thieno[2,3-b]pyridin-4-yl}phenyl)(methyl)amino]ethyl}carbamate] were 55.8 ± 25.1%, 85.7 ± 8.2%, 30.1 ± 14.2% and 7.5 ± 5.9%.
Taken in the same sequence, the figures for `CN(CCNC(=O)OC(C)(C)C)c1ccc(-c2c(C#N)c(N)nc3sc(C(=O)Nc4ccccc4Cl)c(N)c23)c(Cl)c1` [Compound 9ad, tert-Butyl {2-[(3-chloro-4-{3,6-diamino-2-[(2-chlorophenyl)carbamoyl]-5-cyanothieno[2,3-b]pyridin-4-yl}phenyl)(methyl)amino]ethyl}carbamate] were 76.3 ± 24.1%, 95 ± 10.7%, 57.7 ± 24.1% and 13.3 ± 9.9%.
`CN(CCN)c1ccc(-c2c(C#N)c(N)nc3sc(C(=O)Nc4cccc(Cl)c4)c(N)c23)c(Cl)c1` [Compound 9ae, 3,6-Diamino-4-{4-[(2-aminoethyl)(methyl)amino]-2-chlorophenyl}-N-(3-chlorophenyl)-5-cyanothieno-[2,3-b]pyridine-2-carboxamide hydrochloride]: the viability at 48 h, 30 µM in the data set “in vitro” was -8.5 ± 7.4%. Also, the remaining activity at 10 µM at rPfGSK-3 was 101 ± 20.2%. Moreover, in data set [1], the activity at 0.3 µM is 1.7 ± 4.2% and the activity at 3 µM is 2.7 ± 7.8%.
Taken in the same sequence, the figures for `CN(C)CCN(C)c1ccc(-c2c(C#N)c(N)nc3sc(C(=O)Nc4cccc(Cl)c4)c(N)c23)c(Cl)c1` [Compound 9af, 3,6-Diamino-4-(2-chloro-4-{[2-(dimethylamino)ethyl](methyl)amino}phenyl)-N-(3-chlorophenyl)-5-cyanothieno[2,3-b]pyridine-2-carboxamide] were -7.4 ± 6.4%, 107 ± 11.2%, 5.8 ± 4.7% and 4.5 ± 7.4%.
The matching figures for `N#Cc1c(N)nc2sc(C(=O)Nc3ccccc3Cl)c(N)c2c1-c1cccc(F)c1` [Compound 9b, 3,6-Diamino-N-(2-chlorophenyl)-5-cyano-4-(3-fluorophenyl)thieno[2,3-b]pyridine-2-carboxamide]: 101 ± 19.6%, 102 ± 16.5%, 96 ± 1.9% and 46 ± 19.7%.
In the case of `N#Cc1c(N)nc2sc(C(=O)Nc3ccccc3Cl)c(N)c2c1-c1cccc(Cl)c1` [Compound 9c, 3,6-Diamino-N-(2-chlorophenyl)-4-(3-chlorophenyl)-5-cyanothieno[2,3-b]pyridine-2-carboxamide], the viability at 48 h, 30 µM in “in vitro” came out at 99.3 ± 5.3%. Further, the remaining activity at 10 µM on rPfGSK-3 is 99 ± 14.1%. For the same compound, in data set [1], the activity at 0.3 µM was 69.2 ± 26% and the activity at 3 µM is 40 ± 15.9%.
On to `N#Cc1c(N)nc2sc(C(=O)Nc3ccc(F)cc3)c(N)c2c1-c1cccc(Cl)c1` [Compound 9d, 3,6-Diamino-4-(3-chlorophenyl)-5-cyano-N-(4-fluorophenyl)thieno[2,3-b]pyridine-2-carboxamide], for which the viability at 48 h, 30 µM in the data set “in vitro” turned out to be 83 ± 21.6%. Further, the remaining activity at 10 µM on rPfGSK-3 is 69.7 ± 16.6%. Moreover, in data set [1], the activity at 0.3 µM is 88.5 ± 17.6% and the activity at 3 µM was 3.5 ± 3.5%.
In the case of `Cc1cccc(-c2c(C#N)c(N)nc3sc(C(=O)Nc4ccc(Cl)cc4)c(N)c23)c1` [Compound 9e, 3,6-Diamino-N-(4-chlorophenyl)-5-cyano-4-(3-methylphenyl)thieno[2,3-b]pyridine-2-carboxamide], the viability at 48 h, 30 µM in the data set “in vitro” is 83.3 ± 20.6%. In addition, the remaining activity at 10 µM on rPfGSK-3 was 106 ± 6.5%. Also, in data set [1], the “SI (Selectivity index for 3D7 erythrocytic forms versus HEK293 cells)” value is given as above 100, the 50% inhibitory concentration (IC50) came to 0.273 µM, the activity at 0.3 µM is 9.7 ± 6.8% and the activity at 3 µM is 5.6 ± 5.5%.
`Cc1cccc(-c2c(C#N)c(N)nc3sc(C(=O)Nc4ccccc4Cl)c(N)c23)c1` [Compound 9f, 3,6-Diamino-N-(2-chlorophenyl)-5-cyano-4-(3-methylphenyl)thieno[2,3-b]pyridine-2-carboxamide]: the viability at 48 h, 30 µM in “in vitro” was 93.6 ± 29.9%. Further, the remaining activity at 10 µM at rPfGSK-3 was 90.9 ± 14.2%. Further, in data set [1], the activity at 0.3 µM is 80.2 ± 20.3% and the activity at 3 µM was 51.6 ± 15.7%.
Taken in the same sequence, the figures for `Cc1cccc(-c2c(C#N)c(N)nc3sc(C(=O)Nc4ccc(F)cc4)c(N)c23)c1` [Compound 9g, 3,6-Diamino-5-cyano-N-(4-fluorophenyl)-4-(3-methylphenyl)thieno[2,3-b]pyridine-2-carboxamide] were 67.8 ± 8.1%, 74.8 ± 21.7%, 63.8 ± 16.5% and 3.1 ± 2.7%.
Taken in the same sequence, the figures for `N#Cc1c(N)nc2sc(C(=O)Nc3ccc(Cl)cc3)c(N)c2c1-c1cccc(F)c1` [Compound 9h, 3,6-Diamino-N-(4-chlorophenyl)-5-cyano-4-(3-fluorophenyl)thieno[2,3-b]pyridine-2-carboxamide] were 90.7 ± 13.2%, 104 ± 13.3%, 63.2 ± 19.5% and 3.9 ± 2.9%.
`N#Cc1c(N)nc2sc(C(=O)Nc3ccc(F)cc3)c(N)c2c1-c1cccc(F)c1` [Compound 9i, 3,6-Diamino-5-cyano-4-(3-fluorophenyl)-N-(4-fluorophenyl)thieno[2,3-b]pyridine-2-carboxamide]: the viability at 48 h, 30 µM in the data set “in vitro” is below 50%. Further, on rPfGSK-3, the remaining activity at 10 µM was 70.9 ± 19.8%. Moreover, in data set [1], the activity at 0.3 µM is 65.8 ± 24.6% and the activity at 3 µM is 6.1 ± 4.9%.
In the case of `CCCCCCCNC(=O)c1sc2nc(N)c(C#N)c(-c3cccc(C)c3)c2c1N` [Compound 9k, 3,6-Diamino-5-cyano-N-heptyl-4-(3-methylphenyl)thieno[2,3-b]pyridine-2-carboxamide], the viability at 48 h, 30 µM in “in vitro” amounted to 54.3 ± 19.1%. In addition, at rPfGSK-3, the remaining activity at 10 µM was 84.7 ± 10.6%. Besides, in data set [1], the activity at 0.3 µM is 72.7 ± 28.2% and the activity at 3 µM is 84 ± 27%.
Taken in the same sequence, the figures for `Cc1cccc(-c2c(C#N)c(N)nc3sc(C(=O)NC(C)C)c(N)c23)c1` [Compound 9l, 3,6-Diamino-5-cyano-N-isopropyl-4-(3-methylphenyl)thieno[2,3-b]pyridine-2-carboxamide] were 70.6 ± 23%, 54.1 ± 15.5%, 80.6 ± 22% and 79.8 ± 20.3%.
In the case of `Cc1cccc(-c2c(C#N)c(N)nc3sc(C(=O)NCCC4CC4)c(N)c23)c1` [Compound 9o, 3,6-Diamino-5-cyano-N-(2-cyclopropylethyl)-4-(3-methylphenyl)thieno[2,3-b]pyridine-2-carboxamide], the remaining activity at 10 µM at rPfGSK-3 is 60 ± 11.2%. In data set [1], the activity at 0.3 µM is 62.5 ± 23.5% and the activity at 3 µM was 40.8 ± 14.3%.
With `CC(C)(C)OC(=O)N1CCN(c2ccc(-c3c(C#N)c(N)nc4sc(C(=O)Nc5cccc(Cl)c5)c(N)c34)c(Cl)c2)CC1` [Compound 9p, tert-Butyl 4-(3-chloro-4-{3,6-diamino-2-[(3-chlorophenyl)carbamoyl]-5-cyanothieno[2,3-b]pyridin-4-yl}phenyl)piperazine-1-carboxylate], the viability at 48 h, 30 µM in the data set “in vitro” amounted to 104 ± 14.1%. Besides, the remaining activity at 10 µM at rPfGSK-3 was 111 ± 12.1%. Further, in data set [1], the activity at 0.3 µM is 48.3 ± 18% and the activity at 3 µM is 5.4 ± 3.2%.
`Nc1c(C(=O)Nc2ccc(Cl)cc2)sc2nc3c(c(-c4ccccc4)c12)CCCC3` [Compound 17d, 3-Amino-N-(4-chlorophenyl)-4-phenyl-5,6,7,8-tetrahydrothieno[2,3-b]quinoline-2-carboxamide]: the remaining activity at 10 µM on rPfGSK-3 is 106 ± 10.6%. Besides, in data set [1], the activity at 0.3 µM is 6.2 ± 5.7% and the activity at 3 µM is 8.4 ± 17.5%.
